Source: ChEMBL document CHEMBL5608141, “Identification of compartment-specific drug sensitivities in CRC organoid-stroma co-cultures” (2024)

How the values were obtained:
Type in all cases: functional, Homo sapiens
Set-up in all cases: dose or concentration left out as unconfirmed
[1] = tested on: Colon cancer organoid; test: Identification of compartment-specific drug sensitivities in O14 CRC organoid-stroma F14 CAF co-cultures. Organoid is transduced with Lucferase2-P2A-EGFP lentivirus, fibroblast with Renilla-dsRed lentivirus. Dual-Glo Luciferase assay is used to report viability data.
[2] = tested on: Colon cancer organoid; test: Identification of compartment-specific drug sensitivities in O06 CRC organoid-stroma F06 CAF co-cultures. Organoid is transduced with Lucferase2-P2A-EGFP lentivirus, fibroblast with Renilla-dsRed lentivirus. Dual-Glo Luciferase assay is used to report viability data.
[3] = tested on: Colon cancer organoid; test: Identification of compartment-specific drug sensitivities in O20 CRC organoid-stroma F20 CAF co-cultures. Organoid is transduced with Lucferase2-P2A-EGFP lentivirus, fibroblast with Renilla-dsRed lentivirus. Dual-Glo Luciferase assay is used to report viability data.
[4] = Transduced with Lucferase2-P2A-EGFP lentivirus
[5] = Transduced with Renilla-dsRed lentivirus

For `CN(C)C(=O)N1CC[C@H](NC2=Nc3cc(F)ccc3N(CC(F)F)c3ccc(Cl)cc32)C1`, the “Cell Viability” value [1, 4] was 119.43%, the “Cell Viability” value [1, 5] was 91.6025% and the “Cell Viability” value [2, 4] was 22.5333%. The “Cell Viability” value [2, 5] was 79.8107%, the “Cell Viability” value [3, 4] was 71.357% and the “Cell Viability” value [3, 5] was 98.2431%.

`CN([C@@H]1CCc2c(CC(=O)O)c3cc(S(C)(=O)=O)ccc3n2C1)S(=O)(=O)c1ccc(F)cc1` [CRTH2-negative-control] was tested, and the “Cell Viability” value [1, 4] was 107.65%, the “Cell Viability” value [1, 5] was 94.275% and the “Cell Viability” value [2, 4] was 78.3965%. For the same molecule, the “Cell Viability” value [2, 5] was 74.5251%, the “Cell Viability” value [3, 4] was 107.561% and the “Cell Viability” value [3, 5] was 126.69%.

In the case of `CC(=O)NCC(=O)N1[C@@H]2CC[C@H]1c1ccc(Nc3ncc(C(F)(F)F)c(NC4CCC4)n3)cc12` [PF-03814735], the “Cell Viability” value [1, 4] was 7.804%, the “Cell Viability” value [1, 5] was 45.5161% and the “Cell Viability” value [2, 4] was 12.0789%. For the same molecule, the “Cell Viability” value [2, 5] was 82.3636%, the “Cell Viability” value [3, 4] was 4.585% and the “Cell Viability” value [3, 5] was 155.761%.

With `COc1cc(OC)cc(-c2noc(N3CCN(C)C4(CCN(c5ccnc(C)c5)CC4)C3)n2)c1` the “Cell Viability” value [1, 4] was 96.7615%, the “Cell Viability” value [1, 5] was 90.1785% and the “Cell Viability” value [2, 4] was 121.179%. For the same molecule, the “Cell Viability” value [2, 5] was 136.172%, the “Cell Viability” value [3, 4] was 136.59% and the “Cell Viability” value [3, 5] was 146.282%.

With `COc1cc(Nc2ncc3c(n2)-c2ccc(Cl)cc2C(c2c(F)cccc2OC)=NC3)ccc1C(=O)O` [ALISERTIB] the “Cell Viability” value [1, 4] was 16.3683%, the “Cell Viability” value [1, 5] was 117.657% and the “Cell Viability” value [2, 4] was 7.435%. For the same molecule, the “Cell Viability” value [2, 5] was 169.322%, the “Cell Viability” value [3, 4] was 6.089% and the “Cell Viability” value [3, 5] was 322.747%.

In the case of `Cc1cc(NC(=O)c2cccc(S(F)(F)(F)(F)F)c2)cc(-n2ccn3nc(-c4cccnc4)cc23)c1` [BAY-309], the “Cell Viability” value [1, 4] was 149.605%, the “Cell Viability” value [1, 5] was 88.4633% and the “Cell Viability” value [2, 4] was 58.4282%. The “Cell Viability” value [2, 5] was 47.7134%, the “Cell Viability” value [3, 4] was 122.672% and the “Cell Viability” value [3, 5] was 127.793%.

With `CCN(C(=O)CO)[C@H]1CN(/C(=N\C#N)Nc2cccc(OC(F)F)c2)N=C1c1ccc(Cl)c(Cl)c1` the “Cell Viability” value [1, 4] was 106.236%, the “Cell Viability” value [1, 5] was 108.187% and the “Cell Viability” value [2, 4] was 100.328%. The “Cell Viability” value [2, 5] was 102.729%, the “Cell Viability” value [3, 4] was 98.7267% and the “Cell Viability” value [3, 5] was 141.776%.

For `COc1ccc2c(c1)O[C@H](c1ccc(OC)c(OC)c1)C[C@@H]2NC(=O)C1(c2ccc3c(c2)OC(F)(F)O3)CC1` [A-1596584], the “Cell Viability” value [1, 4] was 91.0132%, the “Cell Viability” value [1, 5] was 118.771% and the “Cell Viability” value [2, 4] was 86.7173%. The “Cell Viability” value [2, 5] was 88.6658%, the “Cell Viability” value [3, 4] was 73.1553% and the “Cell Viability” value [3, 5] was 142.746%.

`CSc1cccnc1N1CCN(Cc2nc3ccccc3[nH]2)CC1` [A-769] was tested, and the “Cell Viability” value [1, 4] was 118.57%, the “Cell Viability” value [1, 5] was 113.172% and the “Cell Viability” value [2, 4] was 75.6066%. For the same molecule, the “Cell Viability” value [2, 5] was 105.586%, the “Cell Viability” value [3, 4] was 125.432% and the “Cell Viability” value [3, 5] was 98.3481%.

In the case of `CC(C)Oc1ccc(-c2nn([C@@H](C)c3oc4ccc(F)cc4c(=O)c3-c3cccc(F)c3)c3ncnc(N)c23)cc1F` [UMBRALISIB], the “Cell Viability” value [1, 4] was 161.449%, the “Cell Viability” value [1, 5] was 91.4949% and the “Cell Viability” value [2, 4] was 96.678%. For the same molecule, the “Cell Viability” value [2, 5] was 112.425%, the “Cell Viability” value [3, 4] was 103.314% and the “Cell Viability” value [3, 5] was 87.858%.

In the case of `Cc1ccccc1Oc1cc(-n2c(=O)cc(C(F)(F)F)[nH]c2=O)c2ccccc2c1Cl` [BAY-069], the “Cell Viability” value [1, 4] was 126.47%, the “Cell Viability” value [1, 5] was 121.899% and the “Cell Viability” value [2, 4] was 128.819%. The “Cell Viability” value [2, 5] was 153.89%, the “Cell Viability” value [3, 4] was 84.1162% and the “Cell Viability” value [3, 5] was 119.466%.

For `CC(=O)c1c(NS(C)(=O)=O)c2cc(-c3ccc(Cl)cc3)c(-c3ccc(Cl)cc3Cl)nc2n(C)c1=O` [MRL-CB1-NC], the “Cell Viability” value [1, 4] was 112.083%, the “Cell Viability” value [1, 5] was 107.66% and the “Cell Viability” value [2, 4] was 117.339%. The “Cell Viability” value [2, 5] was 76.9916%, the “Cell Viability” value [3, 4] was 159.821% and the “Cell Viability” value [3, 5] was 122.581%.

For `O=C(Nc1ccc(-c2ccnc(Nc3ccc(N4CCOCC4)cc3)n2)cc1)[C@@H]1CCCN1`, the “Cell Viability” value [1, 4] was 129.164%, the “Cell Viability” value [1, 5] was 79.5845% and the “Cell Viability” value [2, 4] was 100.254%. The “Cell Viability” value [2, 5] was 96.014%, the “Cell Viability” value [3, 4] was 139.273% and the “Cell Viability” value [3, 5] was 76.0213%.

`Cc1cc(-n2nc(Cc3cc(F)cc(C(F)(F)F)c3)nc2C)ccc1C(N)=O` [TP-024] was tested, and the “Cell Viability” value [1, 4] was 124.645%, the “Cell Viability” value [1, 5] was 106.61% and the “Cell Viability” value [2, 4] was 115.389%. For the same molecule, the “Cell Viability” value [2, 5] was 121.941%, the “Cell Viability” value [3, 4] was 120.055% and the “Cell Viability” value [3, 5] was 118.791%.

With `O=C(c1ccc(C(=O)N2CCC(N3CCCC3)CC2)c(Nc2ccccc2)c1)N1CCC(N2CCCC2)CC1` the “Cell Viability” value [1, 4] was 131.975%, the “Cell Viability” value [1, 5] was 97.2232% and the “Cell Viability” value [2, 4] was 108.091%. For the same molecule, the “Cell Viability” value [2, 5] was 96.0319%, the “Cell Viability” value [3, 4] was 130.421% and the “Cell Viability” value [3, 5] was 96.2949%.

With `Cc1cc(C)cc(C(=O)NOCCCCCC(=O)NO)c1` the “Cell Viability” value [1, 4] was 50.2494%, the “Cell Viability” value [1, 5] was 170.815% and the “Cell Viability” value [2, 4] was 13.8956%. For the same molecule, the “Cell Viability” value [2, 5] was 454.718%, the “Cell Viability” value [3, 4] was 15.4081% and the “Cell Viability” value [3, 5] was 402.959%.

In the case of `Cn1nc(C(=O)NCc2ccc(C(=O)O)cc2)cc1-c1ccc2[nH]ccc2c1` [BI 4395], the “Cell Viability” value [1, 4] was 88.69%, the “Cell Viability” value [1, 5] was 99.7693% and the “Cell Viability” value [2, 4] was 119.737%. For the same molecule, the “Cell Viability” value [2, 5] was 69.3241%, the “Cell Viability” value [3, 4] was 100.657% and the “Cell Viability” value [3, 5] was 92.7545%.

With `O=C(Nc1nc2cccc(-c3ccc(CN4CCS(=O)(=O)CC4)cc3)n2n1)C1CC1` [FILGOTINIB] the “Cell Viability” value [1, 4] was 113.804%, the “Cell Viability” value [1, 5] was 94.0881% and the “Cell Viability” value [2, 4] was 100.525%. The “Cell Viability” value [2, 5] was 92.8016%, the “Cell Viability” value [3, 4] was 113.419% and the “Cell Viability” value [3, 5] was 86.0918%.
